{"source": "patent US20150071856A1", "about": "“ANTAGONISTIC PEPTIDES FOR FRIZZLED-1 AND FRIZZLED-2” (Universiteit Maastricht, priority 2013, published 2015)", "key": {"rFzd-1 or -2": {"tested_on": "rFzd-1 or -2", "test": "TOPflash experiments in CHO and COS-7 cells overexpressing rFzd-1 or -2", "type": "cell-based, rat", "from_the_text": "Three areas of high homology that contained two cysteines are underlined (UM207), (UM208) and (UM206). In FIGS. 9B through 9D, the inhibitory effect of these three peptides on Wnt3a-induced luciferase activity in HEK293-superTOPflash is shown. […] Again, the peptides by themselves had no effect on the luciferase activity.\nFor the luciferase experiments not in HEK cells, the cells were additionally transfected with a TOPflash construct, eight TCF/LEF binding sites cloned into the pTA-Luc vector. Luciferase activity was measured using luciferase assay system (Promega, Madison Wis., USA)."}, "infarct rupture": {"tested_on": "infarct rupture", "test": "Infarct rupture in 12956 mice treated with UM206", "type": "in vivo", "settings": "infarct rupture frequency ˜60%; unpublished observations", "from_the_text": "Because of the lack of pharmacological tools to intervene in Wnt/Fzd signaling in vivo, only genetic interventions have been reported so far in studies on the role of Wnt signaling in infarct healing. Barandon et al. were the first to show a beneficial effect of overexpression on infarct healing of FrzA, a bovine homologue of soluble frizzled-related protein-1 (sFRP1). They observed a decreased infarct size with elevated numbers of myofibroblasts and increased angiogenesis in the infarcted FrzA transgenic mice (Barandon et al., 2003), which could be confirmed in the present study using an Fzd-1 and -2 antagonist. […] In the mean time, the beneficial effects of sFRP overexpression on infarct healing have been confirmed by Kobayashi et al. (Kobayashi et al., 2009). Taken together, these reports support the observations of the present study and point to a beneficial effect of inhibiting Wnt/Fzd signaling on the wound-healing process after MI."}}, "note": "Residues, ends and D or L forms follow the SMILES beside them."}
{"smiles": "CSCC[C@H](NC(=O)CNC(=O)[C@H](CCC(=O)O)NC(=O)[C@H](CO)NC(=O)[C@@H](NC(=O)[C@H](CCCCN)NC(=O)[C@H](CC(N)=O)NC(=O)[C@H](CS)NC(C)=O)[C@@H](C)O)C(=O)N[C@@H](CC(=O)O)C(=O)NCC(=O)N[C@@H](CS)C(=O)N[C@@H](CCC(=O)O)C(=O)N[C@@H](CC(C)C)C(N)=O", "note": "[UM206, Ac-Cys-Asn-Lys-Thr-Ser-Glu-Gly-Met-Asp-Gly-Cys-Glu-Leu-NH2] (Ac-CNKTSEGMDGCEL-NH2)", "values": [{"measurement": "inhibition of Wnt3a-induced TOPflash activation in CHO and COS-7 cells", "setting": "rFzd-1 or -2", "value": "can selectively block canonical Wnt/Fzd-1/2 signaling"}, {"measurement": "number of ruptured infarcts", "setting": "infarct rupture", "value": "did not reduce the number of ruptured infarcts"}]}
